23 compounds from PubChem BioAssay AID248 (DTP/NCI, 2004) can be followed below.

For the assay, the system named is L1210 leukemia ip in BDF1 mice, survival T/C. The assay can be described thus: NCI In Vivo Anticancer Drug Screen. Data for tumor model L1210 Leukemia (intraperitoneal) in B6D2F1 (BDF1) mice. As to conditions: endpoint: mean survival time, higher = longer survival. The procedure, abridged: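 Read-out is survival time, reported as the treated-group measurement over the vehicle-control measurement.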

[1] abbreviates: dose: 50.0 mg/kg/injection, schedule: Q01DX001 (ip), vehicle: carboxymethylcellulose (CMC).
Setting [2] is: dose: 100.0 mg/kg/injection, schedule: Q01DX001 (ip), vehicle: carboxymethylcellulose (CMC).
[3] abbreviates: dose: 100.0 mg/kg/injection, schedule: Q04DX002 (ip), vehicle: Klucel (hydroxypropylcellulose) (HPC).
The mark [4] stands for this setting: dose: 200.0 mg/kg/injection, schedule: Q01DX001 (ip), vehicle: carboxymethylcellulose (CMC).
Setting [5] is: dose: 200.0 mg/kg/injection, schedule: Q04DX002 (ip), vehicle: Klucel (hydroxypropylcellulose) (HPC).
Where [6] appears, read: dose: 400.0 mg/kg/injection, schedule: Q01DX001 (ip), vehicle: carboxymethylcellulose (CMC).
[7] abbreviates: dose: 400.0 mg/kg/injection, schedule: Q04DX002 (ip), vehicle: Klucel (hydroxypropylcellulose) (HPC).
The mark [8] stands for this setting: dose: 100.0 mg/kg/injection, schedule: Q04DX003 (ip), vehicle: Klucel (hydroxypropylcellulose) (HPC).
Setting [9] is: dose: 200.0 mg/kg/injection, schedule: Q04DX003 (ip), vehicle: Klucel (hydroxypropylcellulose) (HPC).
[10] abbreviates: dose: 400.0 mg/kg/injection, schedule: Q04DX003 (ip), vehicle: Klucel (hydroxypropylcellulose) (HPC).
The mark [11] stands for this setting: dose: 50.0 mg/kg/injection, schedule: Q01DX001 (ip), vehicle: saline.
Setting [12] is: dose: 100.0 mg/kg/injection, schedule: Q01DX001 (ip), vehicle: saline.
Where [13] appears, read: dose: 200.0 mg/kg/injection, schedule: Q01DX001 (ip), vehicle: saline.
Where [14] appears, read: dose: 400.0 mg/kg/injection, schedule: Q01DX001 (ip), vehicle: saline.
The mark [15] stands for this setting: dose: 50.0 mg/kg/injection, schedule: Q01DX009 (ip), vehicle: saline with Tween-80.
Where [16] appears, read: dose: 100.0 mg/kg/injection, schedule: Q01DX009 (ip), vehicle: saline with Tween-80.
[17] abbreviates: dose: 200.0 mg/kg/injection, schedule: Q01DX009 (ip), vehicle: saline with Tween-80.
The mark [18] stands for this setting: dose: 100.0 mg/kg/injection, schedule: Q01DX009 (ip), vehicle: Klucel (hydroxypropylcellulose) (HPC).
[19] abbreviates: dose: 200.0 mg/kg/injection, schedule: Q01DX009 (ip), vehicle: Klucel (hydroxypropylcellulose) (HPC).
Where [20] appears, read: dose: 400.0 mg/kg/injection, schedule: Q01DX009 (ip), vehicle: saline with Tween-80.

“And” between values parts separate entries of the source, which are not always exact repeats. Identical values can stand only once. Inconclusive results and toxic doses are left out.

Regarding `CCCC[C@H]1C(=O)O[C@H](C)[C@H](NC(=O)c2cccc(NC=O)c2O)C(=O)O[C@@H](C)[C@@H]1OC(=O)CC(C)C`, the T/C (dose: 0.5 mg/kg/injection, schedule: Q01DX001 (ip), vehicle: carboxymethylcellulose (CMC)) was 92 % of control; the T/C (dose: 1.0 mg/kg/injection, schedule: Q01DX001 (ip), vehicle: carboxymethylcellulose (CMC)) is 101 % of control; the T/C (dose: 2.0 mg/kg/injection, schedule: Q01DX001 (ip), vehicle: carboxymethylcellulose (CMC)) is 94 % of control.

For `CC(=O)c1ccc(Oc2ccc(C(C)=O)cc2)cc1`, the T/C is 103 % of control under setting [1]; 105 % of control under setting [2]; 106 % of control under setting [3]; 92 % of control under setting [4]; 102 % of control under setting [5]; 92 % of control under setting [6]. Further, the T/C under setting [7] is 91 % of control.

On to `O=[N+]([O-])c1cccc(S(=O)(=O)NNc2cccc(C(F)(F)F)c2)c1`, for which the T/C is 99 % of control under setting [8], 94 % of control under setting [9] and 89 % of control under setting [10].

For the compound `O=C1OC(c2ccccc2)=N/C1=C\c1cccnc1`, the T/C is 90 % of control (dose: 50.0 mg/kg/injection, schedule: Q04DX002 (ip), vehicle: Klucel (hydroxypropylcellulose) (HPC)); 96 % of control under setting [3]; 86 % of control under setting [5]; 86 % of control under setting [7].

For the compound `O=C1CCCCCCCCCCCCCC1`, the T/C runs as follows: under setting [3], 102 % of control; under setting [5], 102 % of control; under setting [7], 102 % of control.

Regarding `C[N+](C)(C)c1ccc(C(=O)[O-])cc1`, the T/C runs as follows: under setting [11], 97 % of control; under setting [12], 97 % of control; under setting [13], 97 % of control; under setting [14], 103 % of control.

As to `CC(C)C(Br)C(Br)c1ccccc1` (stereo not given), the T/C is 96 % of control under setting [15], 102 % of control under setting [16] and 96 % of control under setting [17].

Consider `O=C(CCCC(=O)N/N=C/c1cccc(I)c1)N/N=C\c1cccc(I)c1`, for which the T/C is 100 % of control under setting [11], 100 % of control under setting [12], 100 % of control under setting [13] and 97 % of control under setting [14].

For `CSc1ccc(OC(=O)Nc2cc(C)ccc2C)cc1`, the T/C was 97 % of control under setting [18]; 109 % of control under setting [8]; 107 % of control under setting [19]; 107 % of control under setting [9]; 107 % of control under setting [10].

Regarding `COc1nc(N)nc2c1ncn2C1OC(CO)CC1O` (stereo not given), the T/C was 93 % of control under setting [1], 93 % of control under setting [2], 93 % of control under setting [4] and 96 % of control under setting [6].

For `Nc1cc(Cl)cc2[nH]c(=O)c3cc(Cl)ccc3c12`, the T/C was 100 % of control under setting [2], 102 % of control under setting [4] and 95 % of control under setting [6].

Consider `CCOC(=O)c1cnc2onc(C)c2c1Nc1cccc(C(F)(F)F)c1`, for which the T/C by setting is: under setting [8], 90 % of control; under setting [9], 97 % of control; under setting [10], 101 % of control.

For `O=c1ccc2c(-c3cc(S(=O)(=O)O)ccc3O)c3ccc(O)cc3oc-2c1`, the T/C by setting is: under setting [8], 91 % of control; under setting [9], 89 % of control; under setting [10], 91 % of control.

Regarding `Cc1cccc(NC(=O)c2ccc(Cl)cc2Cl)c1C`, the T/C is, setting by setting: under setting [18], 102 % of control; under setting [8], 101 % of control; under setting [19], 91 % of control; under setting [9], 90 % of control; (dose: 400.0 mg/kg/injection, schedule: Q01DX009 (ip), vehicle: Klucel (hydroxypropylcellulose) (HPC)) 91 % of control; under setting [10], 93 % of control.

`CCOC(=O)C(C)(CCOCc1ccccc1)NC(C)=O` (stereo not given): the T/C was 94 % of control under setting [1], 96 % of control under setting [2], 100 % of control under setting [4] and 91 % of control under setting [6].

Take `CC12CCC3(CCC4(C)C(=C3C1)CCC1C3(C)CCC(OC5OC(CO)C(O)C(O)C5O)C(C)(C)C3CCC14C)C(=O)O2` (stereo not given): the T/C runs as follows: under setting [15], 104 % of control; under setting [16], 108 % of control; under setting [17], 114 % of control.

In the case of `CCCCCCCCOP(OCCCCCCCC)OCCCCCCCC`, the T/C reads like this: (dose: 100.0 mg/kg/injection, schedule: Q04DX003 (ip), vehicle: saline) 95 % of control; (dose: 200.0 mg/kg/injection, schedule: Q04DX003 (ip), vehicle: saline) 98 % of control; (dose: 400.0 mg/kg/injection, schedule: Q04DX003 (ip), vehicle: saline) 104 % of control.

With `O=NN(CCCl)C(=O)Nc1ccc(I)cc1`, the T/C is, setting by setting: (dose: 8.0 mg/kg/injection, schedule: Q01DX009 (ip), vehicle: carboxymethylcellulose (CMC)) 121 % of control; (dose: 8.4 mg/kg/injection, schedule: Q01DX009 (ip), vehicle: carboxymethylcellulose (CMC)) 112 % of control; (dose: 12.0 mg/kg/injection, schedule: Q01DX009 (ip), vehicle: carboxymethylcellulose (CMC)) 112 % of control; (dose: 17.0 mg/kg/injection, schedule: Q01DX001 (ip), vehicle: carboxymethylcellulose (CMC)) 117 % of control; (dose: 17.7 mg/kg/injection, schedule: Q01DX001 (ip), vehicle: carboxymethylcellulose (CMC)) 119 % of control; (dose: 26.6 mg/kg/injection, schedule: Q01DX001 (ip), vehicle: carboxymethylcellulose (CMC)) 122 % of control. The T/C was 150 % of control and 154 % of control (dose: 29.0 mg/kg/injection, schedule: Q01DX009 (ip), vehicle: carboxymethylcellulose (CMC)); 124 % of control (dose: 44.0 mg/kg/injection, schedule: Q01DX009 (ip), vehicle: carboxymethylcellulose (CMC)); 119 % of control (dose: 60.0 mg/kg/injection, schedule: Q01DX001 (ip), vehicle: carboxymethylcellulose (CMC)); 121 % of control and 90 % of control (dose: 66.0 mg/kg/injection, schedule: Q01DX009 (ip), vehicle: carboxymethylcellulose (CMC)); 153 % of control (dose: 89.0 mg/kg/injection, schedule: Q01DX001 (ip), vehicle: carboxymethylcellulose (CMC)); 98 % of control (dose: 100.0 mg/kg/injection, schedule: Q01DX009 (ip), vehicle: carboxymethylcellulose (CMC)). Further, the T/C under setting [4] was 186 % of control.

On to `C/C(=N\O)C(C)C`, for which the T/C (dose: 100.0 mg/kg/injection, schedule: Q01DX001 (ip), vehicle: saline with Tween-80) is 93 % of control; the T/C under setting [16] was 100 % of control; the T/C (dose: 200.0 mg/kg/injection, schedule: Q01DX001 (ip), vehicle: saline with Tween-80) is 101 % of control; the T/C under setting [17] was 98 % of control; the T/C (dose: 400.0 mg/kg/injection, schedule: Q01DX001 (ip), vehicle: saline with Tween-80) was 98 % of control; the T/C under setting [20] was 92 % of control.

Turning to `CC(c1ccccc1)C(C(=O)O)C(=O)O` (stereo not given), the T/C under setting [1] is 100 % of control, the T/C under setting [2] is 96 % of control, the T/C under setting [4] is 96 % of control and the T/C under setting [6] was 97 % of control.

Consider `CCOC(=O)C(C)C(=O)Cc1cc(OC)c(C)cc1Br` (stereo not given), for which the T/C is, setting by setting: under setting [16], 97 % of control; (dose: 100.0 mg/kg/injection, schedule: Q04DX003 (ip), vehicle: saline with Tween-80) 97 % of control; under setting [17], 100 % of control; (dose: 200.0 mg/kg/injection, schedule: Q04DX003 (ip), vehicle: saline with Tween-80) 95 % of control; under setting [20], 105 % of control; (dose: 400.0 mg/kg/injection, schedule: Q04DX003 (ip), vehicle: saline with Tween-80) 109 % of control.

As to `NS(=O)(=O)c1ccc(N=Nc2ccc([As](=O)(O)O)cc2)cc1`, the T/C runs as follows: under setting [12], 98 % of control; under setting [13], 98 % of control; under setting [14], 98 % of control.

`COc1ccccc1OC(=O)Nc1ccccc1F`: the T/C is, setting by setting: under setting [16], 97 % of control; under setting [17], 96 % of control; under setting [20], 118 % of control.
